Test results from PubChem BioAssay (NCI).
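Five concentrations, 48 hours, 96-well plates. Definition used: TGI = concentration required for complete inhibition of growth.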

How the values were obtained:
Assay in all cases: NCI-60 cell line screen, 48 h
[1] = tested on: DMS 114 small cell lung
[2] = tested on: LXFL 529 NSCLC
[3] = tested on: HOP-18 NSCLC
[4] = tested on: DLD-1 colon
[5] = tested on: KM20L2 colon
[6] = tested on: M19-MEL melanoma
[7] = tested on: XF 498 CNS
[8] = tested on: RXF-631 renal
[9] = tested on: BT-549 breast

Compound | TGI [1] [µM] | TGI [2] [µM] | TGI [3] [µM] | TGI [4] [µM] | TGI [5] [µM] | TGI [6] [µM] | TGI [7] [µM] | TGI [8] [µM] | TGI [9] [µM]
O=C1[C@@H]2C(c3ccccc3[N+](=O)[O-])=[N+](c3ccccc3)O[C@@H]2C(=O)N1c1ccc(Cc2ccc(N3C(=O)[C@H]4C(c5ccccc5[N+](=O)[O-])=[N+](c5ccccc5)O[C@H]4C3=O)cc2)cc1 | > 100 | > 100 | > 100 | > 100 | > 100 | > 100 | – | – | –
CCOC(=O)C(C(=O)OCC)c1ccc([N+](=O)[O-])o1 | – | 11.2 | 34.2 | 18.6 | 36.8 | 33.2 | 31 | – | –
Cc1cc(C)n(-c2ccnc3cc(Cl)ccc23)n1 | > 100 | > 100 | > 100 | > 100 | > 100 | > 100 | > 100 | – | –
COc1ccc(Cc2c(=O)[nH]nc3ccccc23)cc1 | > 100 | – | > 100 | > 100 | > 100 | > 100 | > 100 | > 100 | –
O=C(SC1=NCCN1)c1cccc2ccccc12 | – | – | – | – | – | – | – | – | > 100
COC(=O)c1ccccc1NC(=NC1CCCCCC1)NS(=O)(=O)c1ccc(C)cc1 | – | – | – | – | – | – | – | – | > 100
N#Cc1cc([N+](=O)[O-])ccc1NC(=O)/C(=N\NC(=O)c1ccncc1)C(c1cnc2ccc([N+](=O)[O-])cc2n1)[N+](=O)[O-] (centres undefined) | 3.1 | 3.81 | 2.87 | – | 25.1 | 1.69 | 3.17 | 5.13 | 3.55
COc1ccc(-c2c3c(n(C4OC(COC(C)=O)C(OC(C)=O)C(OC(C)=O)C4OC(C)=O)c(=S)c2C#N)CCC3)cc1 (centres undefined) | – | – | – | – | – | – | – | – | > 100
O=C1C=CC(=O)c2c1ccc1c3ccccc3n(-c3ccccc3)c21 | 40.4 | 10.9 | 20.7 | 6.99 | 36.9 | 36.1 | 20.1 | 82.2 | 27
O=C(OCc1ccc([N+](=O)[O-])cc1)N1c2ccccc2[C@@]23O[C@]24CCC[C@H]3C#C/C=C\C#C[C@H]14 | – | – | – | – | – | – | – | – | > 100
N#CC1=C(c2ccccc2)C(=C2Nc3ccccc3N2)C2S/C(=C\c3ccccc3)C(=O)N2C1=N (centres undefined) | 4.64 | 10.8 | – | 12 | 6.56 | 7.97 | 5.57 | – | –
Cc1cc(C)c(O)c(CN2CCN(C(C)C)CCN(C(C)C)CC2)c1 | – | – | – | – | – | – | – | – | 54
CN(C)CCCNC(=O)CCNC(=O)c1cc(NC(=O)c2cc(NC(=O)c3cc(NC(=O)c4nccn4C)cn3C)cn2C)cn1C | – | – | – | – | – | – | – | – | > 100
CCOC(=O)c1cc2c3c(c(C(C)=O)c(O)c2[nH]1)N(C(C)=O)CC3 | – | – | – | – | – | – | – | – | > 100
NC(=O)/C(=N\NC(=O)C[n+]1ccccc1)C1NC(=O)NC1=O (centres undefined) | > 100 | > 100 | > 100 | > 100 | > 100 | > 100 | > 100 | > 100 | –
O=C(c1nc2ccccc2[nH]c1=O)C(O)c1ccco1 (centres undefined) | > 100 | > 100 | – | – | > 100 | > 100 | > 100 | – | –

Compound | TGI [1] [µM] | TGI [2] [µM] | TGI [3] [µM] | TGI [4] [µM] | TGI [5] [µM] | TGI [6] [µM] | TGI [7] [µM] | TGI [8] [µM] | TGI [9] [µM]
C=C1CCCC(C)(C)C1CCC1(C)CCC(C(C)C(=O)OC)OO1 (centres undefined) | – | – | – | – | – | – | – | – | 9.97
CC1CC/C(=C\c2ccc(N(C)C)cc2)C2=C1C(c1ccc(N(C)C)cc1)NC(=S)N2 (centres undefined) | – | – | – | – | – | – | – | – | > 100
Cn1c(=O)c2c(nc3sc4c(n32)C(=O)c2c(O)ccc(O)c2C4=O)n(C)c1=O | – | – | – | – | – | – | – | – | 17.7
Clc1ccc(CCn2cncn2)cc1 | > 100 | > 100 | > 100 | > 100 | > 100 | > 100 | – | – | –
NC(=O)c1ncn(C2OC(CO)C(O)C2O)c1NC=O (centres undefined) | – | – | – | – | – | – | – | – | > 100
CCOC(=O)C1(N)CCc2[nH][nH]c(=O)c2C1 (centres undefined) | – | – | – | – | – | – | – | – | > 100
O=C(CCCN1CCC(Nc2ccccc2)(c2nnnn2C2CCCCC2)CC1)c1ccc(F)cc1 | – | – | – | – | – | – | – | – | 20.4
CC(C)(C)OC(=O)NC(Cc1ccc(O)cn1)C(=O)O (centres undefined) | – | – | – | – | – | – | – | – | > 100
N#Cc1ccc(CSC2=C(c3ccc(Cl)cc3)S/C(=C3\SC(SCc4ccc(C#N)cc4)=C(c4ccc(Cl)cc4)S3)S2)cc1 | – | – | – | – | – | – | – | – | > 100
COC(=O)C1=C(OC(=O)c2ccccc2)C(C(=O)OC)[C@@]2(O)[C@@H](C(=O)OC)[C@H](C)C[C@@H]1[C@@H]2C(=O)OC (some centres undefined) | – | – | – | – | – | – | – | – | 78.1
C/C(CC(=O)Nc1cc(C)ccc1C)=N/N=C(N)N | > 100 | > 100 | – | > 100 | > 100 | > 100 | > 100 | – | –
OC[P+](CO)(CO)C12CC3CC(CC(C3)C1)C2 | – | – | – | – | – | – | – | – | > 100
O=[N+]([O-])c1cc([N+](=O)[O-])c(/C=C/c2ccc(Cl)c(Cl)c2)cc1/C=C/c1ccc(Cl)c(Cl)c1 | 68.1 | 56.1 | – | – | 81 | 46.1 | – | – | –
COc1ccc(C2=C(N)c3c(Cl)cccc3C2=O)cc1 | – | – | – | – | – | – | – | – | > 100
O=c1[nH]nc(Cc2ccccc2)n1CCCl | – | – | – | – | – | – | – | – | > 100
Cc1nc(N2N=C(c3ccc(Cl)cc3)CCC2=O)sc1[N+](=O)[O-] | > 100 | > 100 | > 100 | > 100 | > 100 | > 100 | > 100 | – | –
